# Laboratory results: patent US10774064B2 (Cadent Therapeutics, Inc., priority 2016, dated 2020)
# Molecular target: T1, small-conductance Ca2+-activated K+ channels (SK channels, subtype 2) (Homo sapiens, UniProt Q9H2S1)
# T1 construct: expressed in transfected cells; host or cells: HEK293
# Assay: whole-cell patch-clamp of ionic current through SK2 channels in HEK293 cells (SC100)
# Assay type: cell-based
# Conditions: concentration that increases the basal current by 100%; HEK293 cells expressing SK2 channels
# Procedure, shortened: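 SC100, the concentration doubling basal current (a 100% increase), was taken from SK2 currents recorded by whole-cell patch-clamp in SK2-expressing HEK293 cells.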
row,SC100,Structure (SMILES)
1,+ (+ means >1 uM),"Cc1cc(C)n(-c2nccc(NC3CCC(F)(F)CC3)n2)n1 [Compound 163, N-(4,4-difluorocyclohexyl)-2-(3,5-dimethyl-1H-pyrazol-1-yl)pyrimidin-4-amine]"
2,+ (+ means >1 uM),"Cc1cc(C)n(-c2nc(CF)cc(NC3CCC(F)(F)CC3)n2)n1 [Compound 165, N-(4,4-difluorocyclohexyl)-2-(3,5-dimethyl-1H-pyrazol-1-yl)-6-(fluoromethyl)pyrimidin-4-amine]"
3,+ (+ means >1 uM),"Cc1cc(C)n(-c2cccc(N(C)C3CCC(F)(F)CC3)n2)n1 [Compound 166, N-(4,4-difluorocyclohexyl)-6-(3,5-dimethyl-1H-pyrazol-1-yl)-N-methylpyridin-2-amine]"
4,+ (+ means >1 uM),"Cc1cc(C)n(-c2nc(NC3CCC(F)(F)C3)cc(C(F)(F)F)n2)n1 (stereo not drawn) [Compound 167, N-(3,3-difluorocyclopentyl)-2-(3,5-dimethyl-1H-pyrazol-1-yl)-6-(trifluoromethyl)pyrimidin-4-amine]"
5,+ (+ means >1 uM),"Cc1cc(C)n(-c2nc(NC3CCC(F)(F)C3)cc(C(F)F)n2)n1 (stereo not drawn) [Compound 168, N-(3,3-difluorocyclopentyl)-6-(difluoromethyl)-2-(3,5-dimethyl-1H-pyrazol-1-yl)pyrimidin-4-amine]"
6,++ (++ means 200 nM-1000 nM),"CCc1cc(-n2nc(C)cc2C)nc(NC2CCC(F)(F)CC2)n1 [Compound 169, N-(4,4-difluorocyclohexyl)-4-(3,5-dimethyl-1H-pyrazol-1-yl)-6-ethylpyrimidin-2-amine]"
7,++ (++ means 200 nM-1000 nM),"Cc1cc(C)n(-c2cc(C(F)(F)F)cc(NC3CCC(F)(F)CC3)n2)n1 [Compound 170, N-(4,4-difluorocyclohexyl)-6-(3,5-dimethyl-1H-pyrazol-1-yl)-4-(trifluoromethyl)pyridin-2-amine]"
8,++ (++ means 200 nM-1000 nM),"CCc1cc(NC2CCC(F)(F)CC2)nc(-n2nc(C)cc2C)n1 [Compound 171, N-(4,4-difluorocyclohexyl)-2-(3,5-dimethyl-1H-pyrazol-1-yl)-6-ethylpyrimidin-4-amine]"
9,+ (+ means >1 uM),Cc1cc(NC2CCC(F)(F)C2)nc(-n2nc(C)cc2C)n1 (stereo not drawn) [Compound 172]
10,++ (++ means 200 nM-1000 nM),Cc1cc(C)n(-c2cc(C(F)F)nc(NC3CCC(F)(F)CC3)n2)n1 [Compound 173]
11,++ (++ means 200 nM-1000 nM),"Cc1cc(C)n(-c2cc(C#N)cc(NC3CCC(F)(F)CC3)n2)n1 [Compound 174, 2-((4,4-difluorocyclohexyl)amino)-6-(3,5-dimethyl-1H-pyrazol-1-yl)isonicotinonitrile]"
12,++ (++ means 200 nM-1000 nM),"Cc1cc(C)n(-c2cc(C(N)=O)cc(NC3CCC(F)(F)CC3)n2)n1 [Compound 175, 2-((4,4-difluorocyclohexyl)amino)-6-(3,5-dimethyl-1H-pyrazol-1-yl)isonicotinamide]"
13,+ (+ means >1 uM),"Cc1cc(C)n(-c2nc(CN3CCOCC3)cc(NC3CCC(F)(F)CC3)n2)n1 [Compound 176, N-(4,4-difluorocyclohexyl)-2-(3,5-dimethyl-1H-pyrazol-1-yl)-6-(morpholinomethyl)pyrimidin-4-amine]"
14,+ (+ means >1 uM),"Cc1cc(C)n(-c2nc(CN(C)C)cc(NC3CCC(F)(F)CC3)n2)n1 [Compound 177, N-(4,4-difluorocyclohexyl)-2-(3,5-dimethyl-1H-pyrazol-1-yl)-6-((dimethylamino)methyl)pyrimidin-4-amine]"
15,+ (+ means >1 uM),"Cc1cc(C)n(-c2nc(CN3CCN(C)CC3)cc(NC3CCC(F)(F)CC3)n2)n1 [Compound 178, N-(4,4-difluorocyclohexyl)-2-(3,5-dimethyl-1H-pyrazol-1-yl)-6-((4-methylpiperazin-1-yl)methyl)pyrimidin-4-amine]"
16,++ (++ means 200 nM-1000 nM),"Cc1ccn(-c2cc(Cl)cc(NC3CCC(F)(F)CC3)n2)n1 [Compound 179, 4-chloro-N-(4,4-difluorocyclohexyl)-6-(3-methyl-1H-pyrazol-1-yl)pyridin-2-amine]"
17,+ (+ means >1 uM),"Cc1cc(NC2CCC(C(F)(F)F)CC2)nc(-n2ccc(C)n2)c1 (stereo not drawn) [Compound 180, 4-methyl-6-(3-methyl-1H-pyrazol-1-yl)-N-(4-(trifluoromethyl)cyclohexyl)pyridin-2-amine]"
18,+ (+ means >1 uM),"Cc1cc(C)n(-c2cc(C(F)F)nc(NC3CCC(F)(F)C3)n2)n1 (stereo not drawn) [Compound 181, N-(3,3-difluorocyclopentyl)-4-(difluoromethyl)-6-(3,5-dimethyl-1H-pyrazol-1-yl)pyrimidin-2-amine]"
19,+ (+ means >1 uM),"Cc1cc(C)n(-c2nc(NC3CCC(F)(F)C3)cc(C(N)=O)n2)n1 (stereo not drawn) [Compound 183, 6-((3,3-difluorocyclopentyl)amino)-2-(3,5-dimethyl-1H-pyrazol-1-yl)pyrimidine-4-carboxamide]"
20,+ (+ means >1 uM),"Cc1cc(C)n(-c2nc(C#N)cc(NC3CCC(F)(F)C3)n2)n1 (stereo not drawn) [Compound 184, 6-((3,3-difluorocyclopentyl)amino)-2-(3,5-dimethyl-1H-pyrazol-1-yl)pyrimidine-4-carbonitrile]"
21,++ (++ means 200 nM-1000 nM),"Cc1cc(C)n(-c2cc(CO)cc(NC3CCC(F)(F)CC3)n2)n1 [Compound 185, (2-((4,4-difluorocyclohexyl)amino)-6-(3,5-dimethyl-1H-pyrazol-1-yl)pyridin-4-yl)methanol]"
22,++ (++ means 200 nM-1000 nM),"Cc1cc(C)n(-c2nc(NC3CCC(F)(F)CC3)cc(C3CC3)n2)n1 [Compound 186, 6-cyclopropyl-N-(4,4-difluorocyclohexyl)-2-(3,5-dimethyl-1H-pyrazol-1-yl)pyrimidin-4-amine]"
23,++ (++ means 200 nM-1000 nM),"Cc1cc(C)n(-c2nc(NC3CCC(F)(F)CC3)cc(N3CCOC(C)C3)n2)n1 (stereo not drawn) [Compound 188, N-(4,4-difluorocyclohexyl)-2-(3,5-dimethyl-1H-pyrazol-1-yl)-6-(2-methylmorpholino)pyrimidin-4-amine]"
24,+++ (+++ means <200 nM),"Cc1cc(C)n(-c2nc(NC3CCC(F)(F)CC3)cc(OCc3cnnn3C)n2)n1 [Compound 189, N-(4,4-difluorocyclohexyl)-2-(3,5-dimethyl-1H-pyrazol-1-yl)-6-((1-methyl-1H-1,2,3-triazol-5-yl)methoxy)pyrimidin-4-amine]"
25,++ (++ means 200 nM-1000 nM),"Cc1cc(C)n(-c2nc(NC3CCC(F)(F)CC3)cc(N3CC(C)OC(C)C3)n2)n1 (stereo not drawn) [Compound 190, N-(4,4-difluorocyclohexyl)-2-(3,5-dimethyl-1H-pyrazol-1-yl)-6-(2,6-dimethylmorpholino)pyrimidin-4-amine]"
26,++ (++ means 200 nM-1000 nM),"Cc1cc(C)n(-c2nc(NC3CCC(F)(F)CC3)cc(OCc3cnn(C)n3)n2)n1 [Compound 191, N-(4,4-difluorocyclohexyl)-2-(3,5-dimethyl-1H-pyrazol-1-yl)-6-((2-methyl-2H-1,2,3-triazol-4-yl)methoxy)pyrimidin-4-amine]"

row,Structure (SMILES),SC100
1,"Cc1cc(C)n(-c2nc(NC3CCC(F)(F)CC3)cc(N3CCOCC3)n2)n1 [Compound 187, N-(4,4-difluorocyclohexyl)-2-(3,5-dimethyl-1H-pyrazol-1-yl)-6-morpholinopyrimidin-4-amine]",++ (++ means 200 nM-1000 nM)
